We go through 39 compounds from patent US20200037600A1, “MESOIONIC IMIDAZOPYRIDINES AS INSECTICIDES” (Bayer Aktiengesellschaft, priority 2017, published 2020).

Read-outs that look alike come from different tables or passages of the source.

A short description of data set [1]: log P by HPLC (EEC directive 79/831 Annex V.A8). Type of data set: physicochemical. How it is done: The log P values reported in the tables and preparation examples above were determined in accordance with EEC directive 79/831 Annex V.A8 by HPLC (High Performance Liquid Chromatography) using a reversed-phase column (C18). Temperature 43° C. The calibration is effected with unbranched alkan-2-ones (having 3 to 16 carbon atoms), for which the log P values are known.

Data set [2] relates to Myzus persicae. In words: Myzus persicae oral test. Type of data set: in vivo. The conditions noted are these: after 5 days. How it is done: Solvent: 100 parts by weight of acetone
To produce a suitable active compound formulation, 1 part by weight of active compound is dissolved with the stated parts by weight of solvent and made up to the desired concentration with water.
50 μl of the active compound formulation are transferred into microtitre plates and made up to a final volume of 200 μl with 150 μl of IPL41 insect medium (33%+15% sugar). Subsequently, the plates are sealed with parafilm, which a mixed population of green peach aphids (Myzus persicae) within a second microtitre plate is able to puncture and imbibe the solution.
(§1) After 5 days, the efficacy in % is determined. 100% means that all the aphids have been killed; 0% means that no aphids have been killed.

Data set [3] deals with Myzus persicae. Nature of the data set: Myzus persicae spray test. Type of data set: in vivo. The conditions noted are these: application rate 500 g/ha, Chinese cabbage leaf discs, after 5 days. On the procedure: Myzus persicae—Spray Test
(§2) Solvent: 78 parts by weight of acetone • • 1.5 parts by weight of dimethylformamide
(§3) Emulsifier: alkylaryl polyglycol ether
(§4) To produce a suitable active compound formulation, 1 part by weight of active compound is dissolved with the specified parts by weight of solvent and made up to the desired concentration with water containing an emulsifier concentration of 1000 ppm. To produce further test concentrations, the formulation is diluted with emulsifier-containing water.
Discs of Chinese cabbage leaves (Brassica pekinensis) infested by all stages of the green peach aphid (Myzus persicae) are sprayed with an active compound formulation of the desired concentration.
as §1

The next data set relates to Diabrotica balteata. In words: Diabrotica balteata spray test. The conditions noted are these: application rate 160 μg/well, beetle larvae on germinated wheat grains, after 7 days. In kind it is in vivo. How it is done: Diabrotica balteata—Spray Test
as §2, §3, §4
Pre-swollen wheat grains (Triticum aestivum) are incubated in a multiwell plate filled with agar and a little water for one day (5 seed grains per well). The germinated wheat grains are sprayed with an active compound preparation of the desired concentration. Subsequently, each cavity is infected with 10-20 beetle larvae of Diabrotica balteata.
After 7 days, the efficacy in % is determined. 100% means that all maize plants have grown as in the untreated, uninfected control; 0% means that no maize plant has grown.

Where [4] appears, read: HPLC, reversed-phase column (C18), 43° C, acidic (HCOOH), read-out: log P (HCOOH).
[5] abbreviates: Myzus persicae, po, 120 h, application rate 4 ppm, read-out: efficacy.

`O=C(O)CN(Cc1cnc(Cl)s1)c1ccccn1` [Example V-1-001, 2-[(2-Chlorothiazol-5-yl)methyl-(2-pyridyl)amino]acetic Acid] yielded a chromatographic logP in data set [1] of 1.21.

Consider `O=C(CCl)c1c([O-])[n+]2ccccc2n1Cc1ccc(Cl)nc1` [Example I-001], for which the efficacy in the data set on Myzus persicae [2] (application rate 20 ppm) was 100%. On to `COCC(=O)c1c([O-])[n+]2ccccc2n1Cc1ccc(Cl)nc1` [Example I-009], for which the efficacy with Myzus persicae [2] (application rate 4 ppm) and with Myzus persicae [2] (application rate 20 ppm) was 100% each time.

`O=C(Cn1cc(Cl)cn1)c1c([O-])[n+]2ccccc2n1Cc1ccc(Cl)nc1` [Example I-006] showed an efficacy in the data set with Myzus persicae [2] (application rate 20 ppm) of 100%.

Take `O=C(c1c([O-])[n+]2ccccc2n1Cc1cncnc1)C(F)(F)F` [Example I-012]: the efficacy in the data set on Myzus persicae [2] (application rate 4 ppm) and in the data set with Myzus persicae [2] (application rate 20 ppm) was 100% each time. Consider `O=C(OCc1cccc(Cl)n1)C(=O)c1c([O-])[n+]2ccccc2n1Cc1cnc(Cl)s1` [Example I-042], for which the efficacy in the data set on Myzus persicae [3] was determined as 100%. Consider `O=C(c1c([O-])[n+]2ccccc2n1Cc1cnc(Cl)s1)C1CC1` [Example I-031], for which the efficacy in the data set on Diabrotica balteata is given as 100%; in the data set on Myzus persicae [2] (application rate 4 ppm), 90%.

Consider `O=C(c1ccc(Cl)cc1)c1c([O-])[n+]2ccccc2n1Cc1cnc(Cl)s1` [Example I-030], for which the efficacy in the data set on Diabrotica balteata and in the data set with Myzus persicae [2] (application rate 4 ppm) was 100% each time. With `CC(C)(C)OC(=O)CN(Cc1cnc(Cl)s1)c1ncccc1C1CC1` [IV-2-003], the chromatographic logP in data set [1] (setting [4]) is 4.73. For `Cc1ccc[n+]2c([O-])c(C(=O)C(=O)OCC3CC3)n(Cc3cnc(Cl)s3)c12` [Example I-047], the pest or weed control at 500 g/ha with Myzus persicae [3] (Myzus persicae, foliar, 120 h, read-out: efficacy) amounted to 90%. The pest or weed control at 160 µg/disc, 160 µg/well in the data set on Diabrotica balteata (Diabrotica balteata, 168 h, read-out: efficacy) is 100%. For the same compound, the pest or weed control at 4 ppm in the data set on Myzus persicae [2] (setting [5]) is 100%.

`CC(=O)c1c([O-])[n+]2ccccc2n1Cc1ccc(Cl)nc1` [Example I-003]: the efficacy is listed as 90% with Myzus persicae [2] (application rate 4 ppm) and 100% with Myzus persicae [2] (application rate 20 ppm). Compound `O=C(COCc1ccnc(Cl)c1)c1c([O-])[n+]2ccccc2n1Cc1ccc(Cl)nc1` [Example I-084, 2-[2-[(2-chloro-4-pyridyl)methoxy]acetyl]-1-[(6-chloro-3-pyridyl)methyl]imidazo[1,2-a]pyridin-4-ium-3-olate] had a chromatographic logP in data set [1] of 1.73. With `CC(C)=CCOC(=O)C(=O)c1c([O-])[n+]2ccccc2n1Cc1cnc(Cl)s1` [Example I-057], the efficacy amounted to 90% in the data set on Myzus persicae [3] and 100% in the data set with Myzus persicae [2] (application rate 4 ppm). With `O=C(c1c([O-])[n+]2cccc(C3CC3)c2n1Cc1cnc(Cl)s1)C(F)(F)F` [Example I-078, 1-[(2-chlorothiazol-5-yl)methyl]-8-cyclopropyl-2-(2,2,2-trifluoroacetyl)imidazo[1,2-a]pyridin-4-ium-3-olate], the chromatographic logP in data set [1] (setting [4]) worked out at 2.48. As to `O=C(NCC1CC1)c1c([O-])[n+]2ccccc2n1Cc1cnc(Cl)s1` [Example I-016], the efficacy in the data set with Diabrotica balteata was determined as 100%; in the data set with Myzus persicae [2] (application rate 4 ppm), 90%.

Consider `O=C(NCc1ccccc1)c1c([O-])[n+]2ccccc2n1Cc1cnc(Cl)s1` [Example I-022], for which the efficacy in the data set with Diabrotica balteata is on record as 100%. As for `Cc1ccc[n+]2c(O)cn(Cc3cnc(Cl)s3)c12` [VII-1-001, 1-[(2-Chlorothiazol-5-yl)methyl]-8-methylimidazo[1,2-a]pyridin-4-ium-3-ol; 2,2,2-trifluoroacetate], in data set [1] (setting [4]), the chromatographic logP came out at 0.75. With `COC(=O)C(=O)c1c([O-])[n+]2ccccc2n1Cc1cnc(Cl)s1` [Example I-032], the efficacy with Myzus persicae [3] and in the data set with Myzus persicae [2] (application rate 4 ppm) was 100% throughout. `O=C(OCc1ccccc1)C(=O)c1c([O-])[n+]2ccccc2n1Cc1cnc(Cl)s1` [Example I-053] returned an efficacy in the data set on Myzus persicae [2] (application rate 4 ppm) of 100%. In turn, `Cc1cccnc1N(CC(=O)OC(C)(C)C)Cc1cnc(Cl)s1` [tert-Butyl 2-[(2-chlorothiazol-5-yl)methyl-(3-methyl-2-pyridyl)amino]acetate] came in with a chromatographic logP in data set [1] of 4.13. For the compound `C#CCOC(=O)C(=O)c1c([O-])[n+]2ccccc2n1Cc1cnc(Cl)s1` [Example I-055], the efficacy in the data set on Myzus persicae [3] is 90%; in the data set with Myzus persicae [2] (application rate 4 ppm), 100%. With `O=C(OCC(F)(F)F)C(=O)c1c([O-])[n+]2ccccc2n1Cc1cnc(Cl)s1` [Example I-036], the efficacy with Myzus persicae [3] was found to be 90%; with Myzus persicae [2] (application rate 4 ppm), 100%.

For `O=C(CBr)c1c([O-])[n+]2ccccc2n1Cc1cnc(Cl)s1` [Example I-020], the efficacy in the data set on Myzus persicae [3] was 90%; with Myzus persicae [2] (application rate 4 ppm), 100%. `CC(C)(C)OC(=O)CN(Cc1cnc(Cl)s1)c1ncccc1I` [IV-2-002]: in data set [1], the chromatographic logP came to 4.62. Regarding `O=C(c1c([O-])[n+]2cccc(-c3ccccc3)c2n1Cc1cnc(Cl)s1)C(F)(F)F` [Example I-109, 1-[(2-chlorothiazol-5-yl)methyl]-8-phenyl-2-(2,2,2-trifluoroacetyl)imidazo[1,2-a]pyridin-4-ium-3-olate], the chromatographic logP in data set [1] (setting [4]) was 2.99. For `CC(C)(C)OC(=O)C(=O)c1c([O-])[n+]2ccccc2n1Cc1cnc(Cl)s1` [Example I-066], the efficacy with Myzus persicae [3] and in the data set on Myzus persicae [2] (application rate 4 ppm) was 90% each time. `CCC(=O)c1c([O-])[n+]2ccccc2n1Cc1cnc(Cl)s1` [Example I-014]: the values for the efficacy with Diabrotica balteata and with Myzus persicae [2] (application rate 4 ppm) were 80% and 100%, respectively. For `O=C(c1cccc(C(F)(F)F)c1)c1c([O-])[n+]2ccccc2n1Cc1cncnc1` [Example I-049], the results for the efficacy with Myzus persicae [3] and in the data set with Myzus persicae [2] (application rate 4 ppm) were 90% and 100%, respectively.

Consider `O=C(Cn1cc(Cl)cn1)c1c([O-])[n+]2ccccc2n1Cc1cnc(Cl)s1` [Example I-004, 2-[2-(4-Chloropyrazol-1-yl)acetyl]-1-[(2-chlorothiazol-5-yl)methyl]imidazo[1,2-a]pyridin-4-ium-3-olate], for which the pest or weed control at 20 ppm with Myzus persicae [2] (Myzus persicae, po, 120 h, application rate 20 ppm, read-out: efficacy) is 90%. Moreover, the chromatographic logP in data set [1] (setting [4]) stood at 1.83. As for `Oc1cn(Cc2cnc(Cl)s2)c2c(I)ccc[n+]12` [VII-1-002, 1-[(2-chlorothiazol-5-yl)methyl]-8-iodoimidazo[1,2-a]pyridin-4-ium-3-ol 2,2,2-trifluoroacetate], the chromatographic logP in data set [1] (setting [4]) was found to be 1.22. On to `O=C(OCCC(F)(F)F)C(=O)c1c([O-])[n+]2ccccc2n1Cc1cnc(Cl)s1` [Example I-054], for which the efficacy with Myzus persicae [3] was determined as 70%; in the data set with Myzus persicae [2] (application rate 4 ppm) it was 100%. As for `Oc1cn(Cc2cnc(Cl)s2)c2c(C3CC3)ccc[n+]12` [VII-1-003, 1-[(2-chlorothiazol-5-yl)methyl]-8-cyclopropylimidazo[1,2-a]pyridin-4-ium-3-ol 2,2,2-trifluoroacetate], in data set [1] (setting [4]), the chromatographic logP came out at 1.27.

Regarding `O=C(OCCc1ccccc1)C(=O)c1c([O-])[n+]2ccccc2n1Cc1cnc(Cl)s1` [Example I-052], in the data set on Myzus persicae [2] (application rate 4 ppm), the efficacy was 100%. As for `O=C(c1c([O-])[n+]2cccc(I)c2n1Cc1cnc(Cl)s1)C(F)(F)F` [Example I-112, 1-[(2-chlorothiazol-5-yl)methyl]-8-iodo-2-(2,2,2-trifluoroacetyl)imidazo[1,2-a]pyridin-4-ium-3-olate], the chromatographic logP in data set [1] was 2.37.

`CC(C)(C)OC(=O)CN(Cc1cnc(Cl)s1)c1ccccn1` [tert-Butyl 2-[(2-chlorothiazol-5-yl)methyl-(2-pyridyl)amino]acetate] came in with a chromatographic logP in data set [1] of 3.59.

As to `CCOC(=O)C(=O)c1c([O-])[n+]2ccccc2n1Cc1cnc(Cl)s1` [Example I-029, 1-[(2-chlorothiazol-5-yl)methyl]-2-(2-ethoxy-2-oxoacetyl)imidazo[1,2-a]pyridin-4-ium-3-olate], the pest or weed control at 4 ppm with Myzus persicae [2] (setting [5]) amounted to 100%. In data set [1], this compound had a chromatographic logP of 1.55. Turning to `CNC(=O)c1c([O-])[n+]2ccccc2n1Cc1cnc(Cl)s1` [Example I-017], the efficacy in the data set with Diabrotica balteata and with Myzus persicae [2] (application rate 4 ppm) was 100% in each case. Take `O=C(c1c([O-])[n+]2ccccc2n1Cc1ccc(Cl)nc1)C(F)(F)F` [Example I-002]: the efficacy in the data set with Myzus persicae [3], in the data set on Diabrotica balteata, in the data set with Myzus persicae [2] (application rate 4 ppm) and in the data set with Myzus persicae [2] (application rate 20 ppm) was 100% in each case. For `O=C(OCC(F)F)C(=O)c1c([O-])[n+]2ccccc2n1Cc1cnc(Cl)s1` [Example I-051], the efficacy in the data set with Myzus persicae [3] was determined as 90%; with Myzus persicae [2] (application rate 4 ppm), 100%.
